# Structures can show the parent of a compound that is named as a salt. Where a SMILES comes first, the peptide text is derived from it.
# Molecular target: T1, LmjIPCS (inositol phosphorylceramide synthase from L. major) (Leishmania major, UniProt E9AFX2)
# T1 sequence (E9AFX2 1-338): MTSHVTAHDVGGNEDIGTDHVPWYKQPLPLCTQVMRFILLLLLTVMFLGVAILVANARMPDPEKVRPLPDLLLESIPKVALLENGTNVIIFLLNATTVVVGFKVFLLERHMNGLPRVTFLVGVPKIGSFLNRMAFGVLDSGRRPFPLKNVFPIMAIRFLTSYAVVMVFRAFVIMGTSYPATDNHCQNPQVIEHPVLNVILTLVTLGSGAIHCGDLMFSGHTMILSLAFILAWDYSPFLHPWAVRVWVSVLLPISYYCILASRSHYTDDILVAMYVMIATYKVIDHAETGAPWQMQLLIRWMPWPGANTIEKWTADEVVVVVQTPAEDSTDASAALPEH
# Experiment: biochemical
# Assay type: biochemical
# Design: inhibition: dose or concentration left out as unconfirmed
# Conditions: not given
row,SMILES,20mM inhibition LmjIPCS
1,COCCOC(=O)C1=C(C)NC(C)=C(C(=O)OC(C)C)C1c1cccc([N+](=O)[O-])c1 (stereo not drawn) [NIMODIPINE],36%
2,CC1=C(C(=O)O)N2C(=O)[C@@H](NC(=O)[C@H](N)C3=CCC=CC3)[C@H]2SC1 [CEPHRADINE],40%
3,NS(=O)(=O)c1cc2c(cc1C(F)(F)F)NC(Cc1ccccc1)NS2(=O)=O (stereo not drawn) [BENDROFUMETHIAZIDE],63%
4,Cc1onc(-c2ccccc2Cl)c1C(=O)N[C@@H]1C(=O)N2[C@@H]1SC(C)(C)[C@@H]2C(=O)O [CLOXACILLIN],45%
5,COc1ccc(CCN(C)CCCC(C#N)(c2ccc(OC)c(OC)c2)C(C)C)cc1OC (stereo not drawn),42%
6,FC(F)(F)c1cccc(N2CCNCC2)c1,54%
7,Oc1c(Cl)cc(Cl)cc1Sc1cc(Cl)cc(Cl)c1O [BITHIONOL],41%
8,Cc1ccc(/N=C/N(C)/C=N/c2ccc(C)cc2C)c(C)c1 [AMITRAZ],55%
9,CN1[C@H]2C[C@H](OC(=O)[C@H](CO)c3ccccc3)C[C@@H]1[C@@H](O)C2 [ANISODAMINE],16%
10,Cc1nnc(SCC2=C(C(=O)O)N3C(=O)[C@@H](NC(=O)Cn4cnnn4)[C@H]3SC2)s1 [CEFAZOLIN],35%
11,CCCCC(=O)O[C@H]1CC[C@H]2[C@@H]3CCc4cc(O)ccc4[C@H]3CC[C@]12C [ESTRADIOL VALERATE],66%
12,COC(=O)[C@H]1[C@H]2C[C@H]3c4[nH]c5cc(OC)ccc5c4CCN3C[C@H]2C[C@@H](OC(=O)c2cc(OC)c(OC)c(OC)c2)[C@@H]1OC [ISORESERPINE],47%
13,OCCOCCN1CCN(C(c2ccccc2)c2ccc(Cl)cc2)CC1 (stereo not drawn) [HYDROXYZINE PAMOATE],45%

# Same assay, conditions: NINDS set screen, single concentration printed as 20mM
row,SMILES,20mM inhibition LmjIPCS
1,C#CCCCCCCCCCCCC(O)CC(O)CO (stereo not drawn) [AVOCADYNE],65%
2,CN1CCc2cccc3c2[C@H]1Cc1ccc(O)c(O)c1-3 [APOMORPHINE],47%
3,CCN(CC)CCOC(=O)C(c1ccccc1)c1ccccc1 [ADIPHENINE],51%
4,CC(=O)Oc1ccccc1C(=O)Oc1ccccc1C(=O)O [DIPLOSALSALATE],67%
5,CCn1cc(C(=O)O)c(=O)c2cc(F)c(N3CCNCC3)nc21 [ENOXACIN],56%
6,COc1cc(N)c(Cl)cc1C(=O)NC1CCN(Cc2ccccc2)CC1 [CLEBOPRIDE],47%

# Same assay, conditions: NINDS set screen; read-out: inhibition LmjIPCS
row,SMILES,inhibition
1,NCC(O)c1ccc(O)cc1 (stereo not drawn) [OCTOPAMINE HYDROCHLORIDE],33%
2,CC12CCC(CC1)C(C)(C)O2 [CINEOLE],-13%
3,OC(CCN1CCCCC1)(c1ccccc1)c1ccccc1 [PRIDINOL],27%
4,CCCCN(CCCC)CCCOC(=O)c1ccc(N)cc1 [BUTACAINE],19%
5,O=[N+]([O-])c1cccc2cn[nH]c12 [7-NITROINDAZOLE],24%

# Same assay, conditions: read-out: 20mM inhibition LmjIPCS
row,SMILES,inhibition at 20000 µM
1,O=C(CCCCC(=O)Nc1c(I)cc(I)c(C(=O)O)c1I)Nc1c(I)cc(I)c(C(=O)O)c1I [IODIPAMIDE],7%
2,C[N+]1(C)[C@@H]2C[C@@H](OC(=O)[C@H](CO)c3ccccc3)C[C@H]1[C@@H]1O[C@@H]12 [METHSCOPOLAMINE BROMIDE],10%
3,S=C=NCc1ccccc1 [BENZYL ISOTHIOCYANATE],6%
4,O=C(O)CCNC(=O)c1ccccc1 [BETAMIPRON],-3.5%
5,C[C@@H](CO)NC(=O)[C@@H]1C=C2c3cccc4[nH]cc(c34)C[C@H]2N(C)C1 [ERGONOVINE],6.33%
6,CCCCCC1C(=O)CCC1CC(=O)O (stereo not drawn) [DIHYDROJASMONIC ACID],20%
7,CC1(C)S[C@@H]2[C@H](NC(=O)COc3ccccc3)C(=O)N2[C@H]1C(=O)O [PENICILLIN V],3.31%
8,NC(Cn1ccc(=O)c(O)c1)C(=O)O (stereo not drawn) [MIMOSINE],3%
9,C=C(C)[C@@H]1CC=C(CO)CC1 [PERILLYL ALCOHOL],11%
10,CC[C@@]1(O)C(=O)OCc2c1cc1n(c2=O)Cc2cc3ccccc3nc2-1 [CAMPTOTHECIN],1.2%
11,CS(=O)(=O)Nc1ccc([N+](=O)[O-])cc1Oc1ccccc1 [NIMESULIDE],11%
12,S=P(N1CC1)(N1CC1)N1CC1 [THIOTEPA],11%
13,CC(C)(C)C(=O)C(Oc1ccc(Cl)cc1)n1cncn1 (stereo not drawn) [TRIADIMEFON],17%
14,CN[C@@H]1[C@H](O)[C@H](NC)[C@H]2O[C@@]3(O)C(=O)C[C@@H](C)O[C@H]3O[C@@H]2[C@H]1O [SPECTINOMYCIN],19%
15,CO[C@@]1(NC(=O)C(C(=O)O)c2ccc(O)cc2)C(=O)N2C(C(=O)O)=C(CSc3nnnn3C)CO[C@@H]21 (stereo partly drawn) [MOXALACTAM],10%
16,O=C1CCCN1CC#CCN1CCCC1 [OXOTREMORINE],4%
17,CC(=O)OCC(=O)[C@@]1(O)CC[C@H]2[C@@H]3CCC4=CC(=O)CC[C@]4(C)[C@H]3[C@@H](O)C[C@@]21C [HYDROCORTISONE ACETATE],7%
18,C=CCc1ccc2c(c1)OCO2 [SAFROLE],1.28%
19,C1CCc2nnnn2CC1 [PENTETRAZOL],16%
20,Nc1ccc(S(=O)(=O)Nc2ccccn2)cc1 [SULFAPYRIDINE],-1.38%
21,COc1ccc(-c2oc3c(CC=C(C)C)c(O[C@@H]4O[C@H](CO)[C@@H](O)[C@H](O)[C@H]4O)cc(O)c3c(=O)c2O[C@@H]2O[C@@H](C)[C@H](O)[C@@H](O)[C@H]2O)cc1 [ICARIIN],10%

# Same assay, conditions: read-out: inhibition LmjIPCS
row,SMILES,inhibition
1,CN(Cc1cnc2nc(N)nc(N)c2n1)c1ccc(C(=O)N[C@@H](CCC(=O)O)C(=O)O)cc1 [METHOTREXATE],8%
2,COc1ccc([C@@H]2Sc3ccccc3N(CCN(C)C)C(=O)[C@@H]2OC(C)=O)cc1 [DILTIAZEM],14%
3,CC(C)=CCC/C(C)=C\CO [NEROL],33%
4,CC(NC(C)(C)C)C(=O)c1cccc(Cl)c1 (stereo not drawn) [BUPROPION],29%
5,Oc1cccc(O)c1 [RESORCINOL],1.29%
6,NC(=O)CN1CCCC1=O,6%
7,C=C1CC[C@H](O)C/C1=C/C=C1\CCC[C@]2(C)[C@@H]([C@H](C)/C=C/[C@H](C)C(C)C)CC[C@@H]12 [ERGOCALCIFEROL],-1.77%
8,CO[C@H]1C[C@H](O[C@H]2[C@H](C)[C@@H](O[C@@H]3O[C@H](C)C[C@H](N(C)C)[C@H]3OC(C)=O)[C@@H](C)C[C@@]3(CO3)C(=O)[C@H](C)[C@@H](OC(C)=O)[C@@H](C)[C@@H](C)OC(=O)[C@@H]2C)O[C@@H](C)[C@@H]1OC(C)=O [TROLEANDOMYCIN],18%
9,CCOC(=O)n1ccn(C)c1=S [CARBIMAZOLE],12%
10,CC1COc2c(N3CCN(C)CC3)c(F)cc3c(=O)c(C(=O)O)cn1c23 (stereo not drawn) [OFLOXACIN],5%
11,CCCCNC(=O)NS(=O)(=O)c1ccc(C)cc1 [TOLBUTAMIDE],30%

# Same assay, conditions: screening of NINDS set, sheet Screen 1; read-out: inhibition LmjIPCS
row,SMILES,inhibition
1,CC(C)[C@H](N)C(=O)N[C@@H](Cc1c[nH]c2ccccc12)C(=O)O [VALYLTRYPTOPHAN] (H-Val-Trp-OH),6%
2,COc1ccc2cc([C@H](C)CO)ccc2c1 [NAPROXOL],4.4%
3,C=N[C@@H](C(=O)N[C@@H]1C(=O)N2[C@@H]1SC(C)(C)[C@@H]2C(=O)O)c1ccccc1 [METAMPICILLIN],10%
4,COc1c(N2CCNC(C)C2)c(F)cc2c(=O)c(C(=O)O)cn(C3CC3)c12 (stereo not drawn) [GATIFLOXACIN],2.29%

# Reference: paper PMC7802075 (ACS Infectious Diseases, 2020)
